Laboratory results published in patent publication US11053219B2, “Substituted pyridines as TYK2 inhibitors” (FronThera U.S. Pharmaceuticals LLC, priority 2018, dated 2021).
Read-outs that look alike come from different tables or passages of the source.

What was measured:
[1] = target: TYK2 (JH2 domain) (Homo sapiens (Human), UniProt P29597); assay: TYK2 JH2 domain binding assay (DiscoverX KINOMEscan); conditions: 11-point 3-fold dilution, duplicate
[2] = tested on: IL12-induced p-STAT4 in human PBMC; assay: IL-12 induced pSTAT4 in human PBMC; assay type: cell-based; conditions: read-out: p-STAT4 IC50
[3] = tested on: INFα induced pSTAT5 in human PBMC; assay: INFα induced pSTAT5 in human PBMC; assay type: cell-based; conditions: human PBMC, INFα 5000 units/ml; read-out: p-STAT5 IC50

Chain of TYK2 (JH2 domain) (P29597 589-875): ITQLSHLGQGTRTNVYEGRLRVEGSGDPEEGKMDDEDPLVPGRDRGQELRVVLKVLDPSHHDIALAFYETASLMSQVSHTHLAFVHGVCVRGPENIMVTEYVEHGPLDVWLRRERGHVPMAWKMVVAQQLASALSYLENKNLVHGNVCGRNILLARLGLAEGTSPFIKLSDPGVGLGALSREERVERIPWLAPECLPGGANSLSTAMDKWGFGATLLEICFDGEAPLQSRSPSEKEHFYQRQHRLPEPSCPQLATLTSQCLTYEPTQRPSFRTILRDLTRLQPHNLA

| Kd [1] | SMILES | IC50 ([2]; human PBMC, IL-12 10 ng/ml) | IC50 [3] | IC50 ([2]; Homo sapiens, PBMC) |
| --- | --- | --- | --- | --- |
| ≤ 1 nM | [2H]C([2H])([2H])NC(=O)c1cnc(N2CCN(C(C)C)C2=O)cc1Nc1cccc(-c2ncn(C)n2)c1OC [Example 48] | < 100 nM |  |  |
| ≤ 1 nM | [2H]C([2H])([2H])NC(=O)c1nnc(N2CCN(CCC)C2=O)cc1Nc1cccc(-c2ncn(C)n2)c1OC [Example 99] | < 100 nM |  |  |
| ≤ 1 nM | [2H]C([2H])([2H])NC(=O)c1nnc(N2CCN(C3CCC(F)(F)CC3)C2=O)cc1Nc1cccc(-c2ncn(C)n2)c1OC [Example 94] | < 100 nM |  |  |
| ≤ 1 nM | [2H]C([2H])([2H])NC(=O)c1nnc(N2CCN(C3CCCOC3)C2=O)cc1Nc1cccc(-c2ncn(C)n2)c1OC (stereo not drawn) [Example 98] | < 100 nM |  |  |
| ≤ 1 nM | [2H]C([2H])([2H])NC(=O)c1nnc(N2CCN(C3CCC3)C2=O)cc1Nc1cccc(-c2ncn(C([2H])([2H])[2H])n2)c1OC [Example 22, 6-(3-cyclobutyl-2-oxo-imidazolidin-1-yl)-4-[2-methoxy-3-[1-(trideuteriomethyl)-1,2,4-triazol-3-yl]anilino]-N-(trideuteriomethyl)pyridazine-3-carboxamide] | < 100 nM |  |  |
| ≤ 1 nM | COc1c(Nc2cc(Nc3cc(F)ccn3)ncc2C(=O)C2CC2)cccc1-c1ncn(C)n1 [Example 108] |  | < 100 nM |  |
|  | [2H]C1([2H])CN(C(=O)Nc2cc(Nc3cccc(-c4ncn(C)n4)c3OC)c(C(=O)NC([2H])([2H])[2H])nn2)C1 [Example 31] | < 100 nM |  |  |
| ≤ 1 nM | CC(C)(O)c1ccc(Nc2cc(Nc3ncccc3S(C)(=O)=O)c(C(=O)C3CC3)cn2)nc1 [Example 126] |  | < 100 nM |  |
|  | [2H]C([2H])([2H])Oc1c(Nc2cc(NC(=O)C3CC3)ncc2C(=O)C2CC2)cccc1-c1ncn(C)n1 [Example 34] |  |  | < 100 nM |
| ≤ 1 nM | [2H]C([2H])([2H])NC(=O)c1nnc(N2CCN(C3CCC3)C2=O)cc1Nc1cccc(-c2ncn(C)n2)c1OC([2H])([2H])[2H] [Example 20, 6-(3-cyclobutyl-2-oxo-imidazolidin-1-yl)-4-[3-(1-methyl-1,2,4-triazol-3-yl)-2-(trideuteriomethoxy)anilino]-N-(trideuteriomethyl)pyridazine-3-carboxamide] | < 100 nM |  |  |
| ≤ 1 nM | [2H]C([2H])([2H])NC(=O)c1nnc(N2CCN(C3C[C@@H]3F)C2=O)cc1Nc1cccc(-c2ncn(C)n2)c1OC (stereo partly drawn) [Example 78] | < 100 nM |  |  |
| ≤ 1 nM | COc1c(Nc2cc(Nc3ccncn3)ncc2C(=O)C2CC2)cccc1-c1ncn(C)n1 [Example 52] | < 100 nM |  |  |
| ≤ 1 nM | [2H]C([2H])([2H])NC(=O)c1nnc(N2CCN(C3(C)CC3)C2=O)cc1Nc1cccc(-c2ncn(C)n2)c1OC [Example 88] | < 100 nM |  |  |
| ≤ 1 nM | COc1c(Nc2cc(Nc3cc(C)c(F)cn3)ncc2C(=O)C2CC2)cccc1-c1ncn(C)n1 [Example 145] |  | < 100 nM |  |
| ≤ 1 nM | [2H]C([2H])([2H])NC(=O)c1nnc(N2CCN(C3CC(C)C3)C2=O)cc1Nc1cccc(-c2ncn(C)n2)c1OC (stereo not drawn) [Example 100] | < 100 nM |  |  |
| ≤ 1 nM | [2H]C([2H])([2H])NC(=O)c1nnc(N2CCN(C3CCCC3)C2=O)cc1Nc1cccc(-c2ncn(C)n2)c1OC [Example 18, 6-(3-cyclopentyl-2-oxo-imidazolidin-1-yl)-4-[2-methoxy-3-(1-methyl-1,2,4-triazol-3-yl)anilino]-N-(trideuteriomethyl)pyridazine-3-carboxamide] | < 100 nM |  |  |
| ≤ 1 nM | [2H]C([2H])([2H])NC(=O)c1nnc(NC(=O)N2CC(F)(F)C2)cc1Nc1cccc(-c2ncn(C)n2)c1OC [Example 47] | < 100 nM |  |  |
|  | [2H]C([2H])([2H])NC(=O)c1nnc(N2CCN(C(C)C)C2=O)cc1Nc1nccc(-c2ncn(C([2H])([2H])[2H])n2)c1OC [Example 160, 6-(3-isopropyl-2-oxo-imidazolidin-1-yl)-4-[[3-methoxy-4-[1-(trideuteriomethyl)-1,2,4-triazol-3-yl]-2-pyridyl]amino]-N-(trideuteriomethyl)pyridazine-3-carboxamide] |  | < 100 nM |  |
| ≤ 1 nM | [2H]C([2H])([2H])NC(=O)c1nnc(N2CCN(C3(C#N)CC3)C2=O)cc1Nc1cccc(-c2ncn(C)n2)c1OC [Example 95] | < 100 nM |  |  |
| ≤ 1 nM | [2H]C([2H])([2H])NC(=O)c1nnc(N2CCN(C(C)CO)C2=O)cc1Nc1cccc(-c2ncn(C)n2)c1OC (stereo not drawn) [Example 85] | 100 to 1000 nM |  |  |
|  | COc1c(Nc2cc(Nc3ccnc(C)n3)ncc2C(=O)C2CC2)cccc1-c1ncn(C)n1 [Example 153] |  | < 100 nM |  |

| Kd [1] | SMILES | IC50 ([2]; human PBMC, IL-12 10 ng/ml) | IC50 [3] | IC50 ([2]; Homo sapiens, PBMC) |
| --- | --- | --- | --- | --- |
|  | CCC(=O)c1cnc(Nc2cc(C)n(C)n2)cc1Nc1nccc(-c2ncn(C)n2)c1OC [Example 180] |  | < 100 nM |  |
|  | CCC(=O)c1cnc(Nc2cccc(C#N)n2)cc1Nc1cccc(-c2ncn(C)n2)c1OC [Example 177] |  | < 100 nM |  |
|  | COc1c(Nc2cc(NC(=O)NC(C)C)ncc2C(=O)C2CC2)cccc1-c1ncn(C)n1 [Example 121] |  | < 100 nM |  |
|  | [2H]C([2H])([2H])NC(=O)c1nnc(NC(=O)N2CC(CO)C2)cc1Nc1cccc(-c2ncn(C)n2)c1OC [Example 169] |  | < 100 nM |  |
|  | COc1c(Nc2cc(Nc3cc(C)nc(C)n3)ncc2C(=O)C2CC2)cccc1-c1ncn(C)n1 [Example 111] |  | < 100 nM |  |
|  | [2H]C([2H])([2H])n1cnc(-c2cccc(Nc3cc(NC(=O)C4CC4)ncc3C(=O)CC)c2OC)n1 [Example 189] |  | < 100 nM |  |
|  | COc1c(Nc2cc(Nc3cccc(C)n3)ncc2C(=O)C2CC2)cccc1-c1ncn(C)n1 [Example 112] |  | < 100 nM |  |
|  | COc1c(Nc2cc(Nc3cc(C)ccn3)ncc2C(=O)C2CC2)cccc1-c1ncn(C)n1 [Example 107] |  | < 100 nM |  |
| ≤ 1 nM | [2H]C([2H])([2H])NC(=O)c1nnc(N2CCN(C34CC(C3)C4)C2=O)cc1Nc1cccc(-c2ncn(C)n2)c1OC [Example 19, 6-[3-(3-bicyclo[1.1.1]pentanyl)-2-oxo-imidazolidin-1-yl]-4-[2-methoxy-3-(1-methyl-1,2,4-triazol-3-yl)anilino]-N-(trideuteriomethyl)pyridazine-3-carboxamide] | < 100 nM |  |  |
|  | COc1c(Nc2cc(Nc3ccnc(C#N)n3)ncc2C(=O)C2CC2)cccc1-c1ncn(C)n1 [Example 143] |  | < 100 nM |  |
|  | COc1c(Nc2cc(Nc3ccc(N4CCOCC4)cn3)ncc2C(=O)C2CC2)cccc1-c1ncn(C)n1 [Example 110] |  | < 100 nM |  |
|  | COc1c(Nc2cc(Nc3cc(C)ncn3)ncc2C(=O)C2CC2)cccc1-c1ncn(C)n1 [Example 154] |  | < 100 nM |  |
|  | COc1c(Nc2cc(Nc3ccn(C)n3)ncc2C(=O)C2CC2)cccc1-c1ncn(C)n1 [Example 138] |  | < 100 nM |  |
|  | [2H]C([2H])([2H])NC(=O)c1cnc(NC(=O)N2CC(C)(C)C2)cc1Nc1cccc(-c2ncn(C)n2)c1OC [Example 148] |  | < 100 nM |  |
|  | [2H]C([2H])([2H])CC(=O)c1cnc(Nc2ccc(C)nn2)cc1Nc1ncccc1S(C)(=O)=O [Example 190] |  | < 100 nM |  |
|  | CCC(=O)c1cnc(NC(=O)N2CCC2)cc1Nc1cccc(-c2ncn(C)n2)c1OC [Example 114] |  | < 100 nM |  |
| ≤ 1 nM | [2H]C([2H])([2H])NC(=O)c1nnc(N2CCN(CC(C)C)C2=O)cc1Nc1cccc(-c2ncn(C)n2)c1OC [Example 17, 6-(3-isobutyl-2-oxo-imidazolidin-1-yl)-4-[2-methoxy-3-(1-methyl-1,2,4-triazol-3-yl)anilino]-N-(trideuteriomethyl)pyridazine-3-carboxamide] | < 100 nM |  |  |
| ≤ 1 nM | [2H]C([2H])([2H])NC(=O)c1nnc(N2CCN(CC3CCC3)C2=O)cc1Nc1cccc(-c2ncn(C)n2)c1OC [Example 96] | < 100 nM |  |  |
| ≤ 1 nM | [2H]C([2H])([2H])NC(=O)c1nnc(N2CCN(CCCC)C2=O)cc1Nc1cccc(-c2ncn(C)n2)c1OC [Example 91] | < 100 nM |  |  |
|  | CCC(=O)c1cnc(Nc2ccc(C(C)(C)O)c(F)n2)cc1Nc1ncccc1S(C)(=O)=O [Example 174] |  | < 100 nM |  |
|  | COc1c(Nc2cc(NC(=O)N3CC(C)(C)C3)ncc2C(=O)C2CC2)cccc1-c1ncn(C)n1 [Example 133] |  | < 100 nM |  |

| SMILES | Kd [1] | IC50 ([2]; human PBMC, IL-12 10 ng/ml) | IC50 [3] | IC50 ([2]; Homo sapiens, PBMC) |
| --- | --- | --- | --- | --- |
| [2H]C([2H])([2H])NC(=O)c1nnc(N2CCN(C(C([2H])([2H])[2H])C([2H])([2H])[2H])C2=O)cc1Nc1cccc(-c2ncn(C([2H])([2H])[2H])n2)c1OC [Example 21, 6-(3-isopropyl-2-oxo-imidazolidin-1-yl)-4-[2-methoxy-3-(1-methyl-1,2,4-triazol-3-yl)anilino]-N-(trideuteriomethyl)pyridazine-3-carboxamide] | ≤ 1 nM | < 100 nM |  |  |
| CNC(=O)c1nnc(NC(=O)N2CCC2)cc1Nc1cccc(-c2ncn(C)n2)c1OC [Example 30] | ≤ 1 nM | < 100 nM |  |  |
| [2H]C([2H])([2H])NC(=O)c1nnc(NC(=O)N2CCC2)cc1Nc1cccc(-c2ncn(C)n2)c1OC [Example 50] | ≤ 1 nM | < 100 nM |  |  |
| [2H]C([2H])([2H])NC(=O)c1nnc(NC(=O)N2CCCC2)cc1Nc1cccc(-c2ncn(C)n2)c1OC [Example 29] | ≤ 1 nM |  |  | < 100 nM |
| COc1c(Nc2cc(NC(=O)N3CCC3)ncc2C(=O)C2CC2)cccc1-c1ncn(C)n1 [Example 33] | ≤ 1 nM |  |  | < 100 nM |
| [2H]C([2H])([2H])NC(=O)c1nnc(NC(=O)N2CC3(CCC3)C2)cc1Nc1cccc(-c2ncn(C)n2)c1OC [Example 32] | ≤ 1 nM |  |  | < 100 nM |
| [2H]C([2H])([2H])NC(=O)c1nnc(N2CCN(C(C([2H])([2H])[2H])C([2H])([2H])[2H])C2=O)cc1Nc1cccc(-c2ncn(C)n2)c1OC [Example 103] | ≤ 1 nM | < 100 nM |  |  |
| [2H]C([2H])([2H])NC(=O)c1nnc(NC(=O)N2CCC2)cc1Nc1cccc(-c2ncn(C)n2)c1OC [Example 28] | ≤ 1 nM |  | < 100 nM |  |
| COc1c(Nc2cc(NC(=O)C(C)C)ncc2C(=O)C2CC2)cccc1-c1ncn(C)n1 [Example 36] | ≤ 1 nM | < 100 nM |  |  |
